Assay [1] concerns the target T1, DnaGC (C-terminal helicase-binding domain of DnaG primase) (Escherichia coli, UniProt P0ABS5).
T1 construct: made in house
Briefly: 15N–1H HSQC NMR titration (binding affinity). The following applies: 15N–1H HSQC titration, change in chemical shift with incremental additions of ligand; roughly estimated. The procedure: The final volume of each sample was 150 μL. The recording time was 30 min for each ^15N–^1H HSQC experiment. A standard pulse sequence was used for data acquisition. Spectra were recorded at 298 K with a Bruker Avance 600 MHz NMR spectrometer equipped with cryoprobe and auto-sample changer. […] The spectra were processed with TOPSPIN 3.1 and analyzed using CCPN [43]. Weighted CSP values were calculated as
Binding affinities were estimated by incremental titration of fragments into protein, with recording of a ^15N–^1H HSQC experiment at each concentration point. Compound solubilities were tested to determine the highest concentrations of ligands used in assays. Equilibrium dissociation constants from NMR titration data were derived using the “single site-specific binding with ligand depletion” model in GraphPad Prism v.6.0 (La Jolla, CA, USA).

In another assay the target is T2, DnaGC (Escherichia coli, UniProt P0ABS5).
T2 construct: made in house
T2 sequence (P0ABS5 434-581): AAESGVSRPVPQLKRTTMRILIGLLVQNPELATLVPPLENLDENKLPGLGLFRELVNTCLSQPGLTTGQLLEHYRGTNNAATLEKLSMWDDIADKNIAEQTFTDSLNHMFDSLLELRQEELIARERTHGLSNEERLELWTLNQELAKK
The experiment in a line: 1D 19F-NMR binding. The conditions noted are these: compound 1 mM, 50 μM DnaGC (20-fold excess). The source says:
The observed NMR peak shifts were consistent with the docked orientation. The negatively charged tetrazole is predicted to form favorable electrostatic and hydrogen bond interactions with the side chains of K447 and R452. The methyl groups of L446, M451, L455, L484 T515 and L519 form a hydrophobic pocket accommodating two aromatic rings of the compound. One of the fluorine atoms is about 3 Å from the amide group of G481 while the second at the para-position of the phenoxy group points out of the pocket toward K518. In the docked conformation, these fluorine atoms are involved in hydrogen bond formation with these two residues (Figure 4). To test the docked orientation of 5, 1D ^19F-NMR was carried out using a 20-fold excess of compound over protein.
(§1) 1D ^19F-NMR spectra were recorded on a Bruker Avance III 400 MHz NMR spectrometer (Bruker, Karlsruhe, Germany) equipped with the two-channel BBO probe with z-gradient at 300 K. All ^19F-NMR spectra were recorded with 256 scans for fragment and complex samples sequentially. Fragments dissolved in ^2H6-DMSO were diluted in HSQC buffer to give final fragment and protein concentrations of 1 mM and 50 μM, respectively.

A further assay has as its target E. coli χ (Escherichia coli, UniProt P28905). The experiment in a line: 1D 19F-NMR binding. The conditions noted are these: in the presence of E. coli χ. The protocol:
The fragments identified here and the first generation of optimized leads for DnaGC were tested against other SSB-Ct binding partners including E. coli PriA, E. coli RNAse HI, and the χ subunit of E. coli and Acinetobacter baumannii DNA polymerase III. STD-NMR was used to assess binding.
as §1

Values joined by “and” are separate entries in the source; they are usually repeats but may differ in a detail not shown here. Identical values can stand only once.

T1 sequence (P0ABS5 434-581): as above
Chain of E. coli χ (P28905 whole entry, the tested form may be a part): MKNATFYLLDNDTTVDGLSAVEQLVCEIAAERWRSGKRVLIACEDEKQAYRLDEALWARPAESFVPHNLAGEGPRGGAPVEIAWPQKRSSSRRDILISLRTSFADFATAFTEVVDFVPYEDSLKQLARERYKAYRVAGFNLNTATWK

In general, Kd refers to the free concentration of one partner at which half of the binding sites on the other are occupied at equilibrium, for simple one-to-one binding. Take `Fc1ccc(Oc2cccc(F)c2-c2nnn[nH]2)cc1` [Compound 5, 5-[2-fluoro-6-(4-fluorphenoxy)phenyl]tetrazol-1-ide]: in assay [1], the Kd is 1300 µM and ~1300 µM. Besides, the “binding by 1D 19F-NMR” value on DnaGC was “confirming binding”.
Regarding `c1ccc(Oc2cccc(-c3nn[nH]n3)c2)cc1` [Compound 6], the Kd in assay [1] is 1200 µM and ~1200 µM.
On to `O=C(O)CN1C(=O)c2cccc3cccc1c23` [Fragment 1], for which, in assay [1], the dissociation constant (Kd) is roughly 1100 µM.
In the case of `O=C(O)CSc1c[nH]c2ccccc12` [Fragment 2], the Kd in assay [1] was roughly 3100 µM.
Take `O=C(O)CCSc1ccccc1` [Fragment 3]: the Kd in assay [1] is roughly 2800 µM.
As to `Fc1ccc(-c2nnn[nH]2)cc1` [Fragment 4], in assay [1], the Kd was roughly 3200 µM. At E. coli χ, the “binding by 1D 19F-NMR” value is reported as “demonstrated binding”.

The values above are taken from paper PMC5872125, “Fragment-Based Discovery of Inhibitors of the Bacterial DnaG-SSB Interaction” (Antibiotics, 2018).
